Results from US6559101B2, “N- (5, 7-dimethoxy [1, 2, 4] triazolo [1, 5-a] pyrimidin-2-yl) arylsulfonamide compounds and their use as herbicides” (Dow AgroSciences LLC, priority 2000, dated 2003).

How the values were obtained:
Format in all cases: in vivo
[1] = tested on: Rox orange sorghum (Sorghum bicolor); experiment: Postemergence herbicidal activity; conditions: 31.3 ppm; scored after 2 weeks; 0 no injury, 100 complete kill
Experimental: (§1) Seeds of the desired test plant species were planted in Grace-Sierra MetroMix® 306 planting mixture, which typically has a pH of 6.0 to 6.8 and an organic matter content of about 30 percent, in plastic pots with a surface area of 64 square centimeters. When required to ensure good germination and healthy plants, a fungicide treatment and/or other chemical or physical treatment was applied. The plants were grown for 7-21 days in a greenhouse with an approximately 15 hr photoperiod which was maintained at about 23-29° C. during the day and 22-28° C. during the night. Nutrients and water were added on a regular basis and supplemental lighting was provided with overhead metal halide 1000 Watt lamps as necessary. The plants were employed for testing when they reached the first or second true leaf stage. A weighed amount of each test compound, determined by the highest rate to be tested, was placed in a 20 mL glass vial and was dissolved in 4 mL of a 97:3 v/v (volume/volume) mixture of acetone and dimethyl sulfoxide to obtain concentrated stock solutions. […] The concentrated stock solutions obtained were diluted with an aqueous mixture containing acetone, water, iso-propyl alcohol, dimethyl sulfoxide, Atplus 411F crop oil concentrate, and Triton X-155 surfactant (methylenebisdiamyl phenoxy polyethoxy ethanol) in a 48.5:39:10:1.5:1.0:0.02 v/v ratio to obtain spray solutions of known concentration. The solutions containing the highest concentration to be tested were prepared by diluting 2 mL aliquots of the stock solution with 13 mL of the mixture and lower concentrations were prepared by dilution of appropriate smaller portions of the stock solution. Approximately 1.5 mL aliquots of each solution of known concentration were sprayed evenly onto each of the test plant pots using a Devilbiss atomizer driven by compressed air pressure of 2 to 4 psi (140 to 280 kiloPascals) to obtain thorough coverage of each plant. Control plants were sprayed in the same manner with the aqueous mixture. In this test an application rate of 1 ppm results in the application of approximately 1 g/ha. The treated plants and control plants were placed in a greenhouse as described above and watered by sub-irrigation to prevent wash-off of the test compounds. After 2 weeks the condition of the test plants as compared with that of the untreated plants was determined visually and scored on a scale of 0 to 100 percent where 0 corresponds to no injury and 100 corresponds to complete kill.

[2] = tested on: blackgrass (Alopecurus myosuroides); experiment: Postemergence herbicidal activity; conditions: 31.3 ppm; scored after 2 weeks; 0 no injury, 100 complete kill
Experimental: as §1

[3] = tested on: chickweed (Stellaria media); experiment: Postemergence herbicidal activity; conditions: 31.3 ppm; scored after 2 weeks; 0 no injury, 100 complete kill
Experimental: as §1

[4] = tested on: cocklebur (Xanthium strumarium); experiment: Postemergence herbicidal activity; conditions: 31.3 ppm; scored after 2 weeks; 0 no injury, 100 complete kill
Experimental: as §1

[5] = tested on: giant foxtail (Setaria faberi); experiment: Postemergence herbicidal activity; conditions: 31.3 ppm; scored after 2 weeks; 0 no injury, 100 complete kill
Experimental: as §1

[6] = tested on: morningglory (Ipomoea hederacea); experiment: Postemergence herbicidal activity; conditions: 31.3 ppm; scored after 2 weeks; 0 no injury, 100 complete kill
Experimental: as §1

[7] = tested on: pigweed (Amaranthus retroflexus); experiment: Postemergence herbicidal activity; conditions: 31.3 ppm; scored after 2 weeks; 0 no injury, 100 complete kill
Experimental: as §1

[8] = tested on: velvetleaf (Abutilion theophrasti); experiment: Postemergence herbicidal activity; conditions: 31.3 ppm; scored after 2 weeks; 0 no injury, 100 complete kill
Experimental: as §1

viola (Viola tricolor) = experiment: Postemergence herbicidal activity; conditions: 31.3 ppm; scored after 2 weeks; 0 no injury, 100 complete kill
Experimental: as §1

[9] = tested on: wild buckwheat (Polygonum convolvulus); experiment: Postemergence herbicidal activity; conditions: 31.3 ppm; scored after 2 weeks; 0 no injury, 100 complete kill
Experimental: as §1

wild oats (Avena fatua) [10] = experiment: Postemergence herbicidal activity; conditions: 31.3 ppm; scored after 2 weeks; 0 no injury, 100 complete kill
Experimental: as §1

[11] = tested on: Rox orange sorghum (Sorghum bicolor); experiment: Preemergence herbicidal activity; conditions: scored after 3 weeks, 0 no injury, 100 complete kill or no germination
Experimental: (§2) The soil matrix was contained in plastic pots with a surface area of 161 square centimeters. When required to ensure good germination and healthy plants, a fungicide treatment and/or other chemical or physical treatment was applied. A weighed amount, determined by the highest rate to be tested, of each test compound was placed in a 20 mL glass vial and was dissolved in 8 mL of a 97:3 v/v (volume/volume) mixture of acetone and dimethyl sulfoxide to obtain concentrated stock solutions. […] The stock solutions obtained were diluted with a 99.9:0.1 mixture of water and Tween® 155 surfactant (ethoxylated sorbitan fatty acid ester) to obtain application solutions of known concentration. The solutions containing the highest concentration to be tested were prepared by diluting 4 mL aliquots of the stock solution with 8.5 mL of the mixture and lower concentrations were prepared by dilution of appropriate smaller portions of the stock solution. A 2.5 mL aliquot of each solution of known concentration was sprayed evenly onto the soil of each seeded pot using a Cornwall 5.0 mL glass syringe fitted with a TeeJet TN-3 hollow cone nozzle to obtain thorough coverage of the soil in each pot. Control pots were sprayed in the same manner with the aqueous mixture. A highest application rate of 4.48 kg/ha is achieved when 50 mg of test compound is employed. The treated pots and control pots were placed in a greenhouse with an approximately 15 hr photoperiod which was maintained at about 23-29° C. during the day and 22-28° C. during the night. Nutrients and water were added on a regular basis and supplemental lighting was provided with overhead metal halide 1000 Watt lamps as necessary. The water was added by top-irrigation. After 3 weeks the condition of the test plants that germinated and grew as compared with that of the untreated plants that germinated and grew was determined visually and scored on a scale of 0 to 100 percent where 0 corresponds to no injury and 100 corresponds to complete kill or no germination.

[12] = tested on: barnyardgrass (Echinochloa crus-galli); experiment: Preemergence herbicidal activity; conditions: scored after 3 weeks, 0 no injury, 100 complete kill or no germination
Experimental: as §2

[13] = tested on: blackgrass (Alopecurus myosuroides); experiment: Preemergence herbicidal activity; conditions: scored after 3 weeks, 0 no injury, 100 complete kill or no germination
Experimental: as §2

[14] = tested on: cocklebur (Xanthium strumarium); experiment: Preemergence herbicidal activity; conditions: scored after 3 weeks, 0 no injury, 100 complete kill or no germination
Experimental: as §2

[15] = tested on: crabgrass (Digitaria sanguinalis); experiment: Preemergence herbicidal activity; conditions: scored after 3 weeks, 0 no injury, 100 complete kill or no germination
Experimental: as §2

[16] = tested on: giant foxtail (Setaria faberi); experiment: Preemergence herbicidal activity; conditions: scored after 3 weeks, 0 no injury, 100 complete kill or no germination
Experimental: as §2

[17] = tested on: lambsquarters (Chenopodium album); experiment: Preemergence herbicidal activity; conditions: 17.5 g/Ha; scored after 3 weeks; 0 no injury, 100 complete kill or no germination
Experimental: as §2

[18] = tested on: morningglory (Ipomoea hederacea); experiment: Preemergence herbicidal activity; conditions: scored after 3 weeks, 0 no injury, 100 complete kill or no germination
Experimental: as §2

[19] = tested on: pigweed (Amaranthus retroflexus); experiment: Preemergence herbicidal activity; conditions: scored after 3 weeks, 0 no injury, 100 complete kill or no germination
Experimental: as §2

[20] = tested on: velvetleaf (Abutilion theophrasti); experiment: Preemergence herbicidal activity; conditions: scored after 3 weeks, 0 no injury, 100 complete kill or no germination
Experimental: as §2

wild oats (Avena fatua) [21] = experiment: Preemergence herbicidal activity; conditions: scored after 3 weeks, 0 no injury, 100 complete kill or no germination
Experimental: as §2

[22] = tested on: wild poinsettia (Euphorbia heterophylla); experiment: Preemergence herbicidal activity; conditions: scored after 3 weeks, 0 no injury, 100 complete kill or no germination
Experimental: as §2

[23] = tested on: lambsquarters (Chenopodium album); experiment: Postemergence herbicidal activity; conditions: 31.3 ppm; scored after 2 weeks; 0 no injury, 100 complete kill
Experimental: as §1

COc1cc(OC)n2nc(NS(=O)(=O)c3c(OCC(F)F)cccc3C(F)(F)F)nc2n1 [Compound 8]
Postemergence herbicidal activity SORBI [1]: 80% | Postemergence herbicidal activity ALOMY [2]: 80% | Postemergence herbicidal activity STEME [3]: 98% | Postemergence herbicidal activity XANST [4]: 100% | Postemergence herbicidal activity SETFA [5]: 100% | Postemergence herbicidal activity IPOHE [6]: 95% | Postemergence herbicidal activity AMARE [7]: 100% | Postemergence herbicidal activity ABUTH [8]: 100% | Postemergence herbicidal activity VIOTR (viola (Viola tricolor)): 85% | Postemergence herbicidal activity POLCO [9]: 98% | Postemergence herbicidal activity AVEFA (wild oats (Avena fatua) [10]): 60% | Preemergence herbicidal activity SORBI ([11]; 17.5 g/Ha): 95% | Preemergence herbicidal activity ECHCG ([12]; 17.5 g/Ha): 100% | Preemergence herbicidal activity ALOMY ([13]; 17.5 g/Ha): 95% | Preemergence herbicidal activity XANST ([14]; 17.5 g/Ha): 80% | Preemergence herbicidal activity DIGSA ([15]; 17.5 g/Ha): 85% | Preemergence herbicidal activity SETFA ([16]; 17.5 g/Ha): 100% | Preemergence herbicidal activity CHEAL [17]: 100% | Preemergence herbicidal activity IPOHE ([18]; 17.5 g/Ha): 90% | Preemergence herbicidal activity AMARE ([19]; 17.5 g/Ha): 100% | Preemergence herbicidal activity ABUTH ([20]; 17.5 g/Ha): 85% | Preemergence herbicidal activity AVEFA (wild oats (Avena fatua) [21]; 17.5 g/Ha): 30% | Preemergence herbicidal activity EPHHL ([22]; 17.5 g/Ha): 90%

COc1cc(OC)n2nc(NS(=O)(=O)c3cc(C)ccc3OC)nc2n1 [Compound 6]
Postemergence herbicidal activity SORBI [1]: 95% | Postemergence herbicidal activity ALOMY [2]: 90% | Postemergence herbicidal activity STEME [3]: 98% | Postemergence herbicidal activity XANST [4]: 95% | Postemergence herbicidal activity SETFA [5]: 95% | Postemergence herbicidal activity CHEAL [23]: 95% | Postemergence herbicidal activity IPOHE [6]: 70% | Postemergence herbicidal activity AMARE [7]: 100% | Postemergence herbicidal activity ABUTH [8]: 95% | Postemergence herbicidal activity VIOTR (viola (Viola tricolor)): 90% | Postemergence herbicidal activity POLCO [9]: 98% | Postemergence herbicidal activity AVEFA (wild oats (Avena fatua) [10]): 95% | Preemergence herbicidal activity SORBI ([11]; 35 g/Ha): 95% | Preemergence herbicidal activity ECHCG ([12]; 35 g/Ha): 90% | Preemergence herbicidal activity ALOMY ([13]; 35 g/Ha): 100% | Preemergence herbicidal activity XANST ([14]; 35 g/Ha): 70% | Preemergence herbicidal activity DIGSA ([15]; 35 g/Ha): 100% | Preemergence herbicidal activity SETFA ([16]; 35 g/Ha): 98% | Preemergence herbicidal activity IPOHE ([18]; 35 g/Ha): 50% | Preemergence herbicidal activity AMARE ([19]; 35 g/Ha): 98% | Preemergence herbicidal activity ABUTH ([20]; 35 g/Ha): 98% | Preemergence herbicidal activity AVEFA (wild oats (Avena fatua) [21]; 35 g/Ha): 90% | Preemergence herbicidal activity EPHHL ([22]; 35 g/Ha): 80%
